Broadly, the IC50 is the concentration that gives 50% inhibition. The low end stands for inhibition by little substance, the high end for a need for much substance.

These results are taken from patent publication US12162878B2 (HINOVA PHARMACEUTICALS INC., priority 2018, dated 2024).

For this assay, the system named is CWR22RV1 cells. The experiment in a line: Inhibition of proliferation of CWR22RV1 cells (CCK-8). It is filed as cell-based, human. Conditions: Homo sapiens, CWR22Rv1, 144 h, 6 days. The procedure:
• CWR22RV1 cell line (Cell Bank of Chinese Academy of Sciences, TCHu100) • FBS (Gibco, Cat. No. 10099-141) • 0.01M PBS (Biosharp, Cat. No. 162262) • RIPM1640 (Hyclone, Cat. No. 308090.01) • Penicillin-Streptomycin (Hyclone, Cat. No. SV30010) • Cell counting kit-8 (Signalway Antibody, Cat. No. CP002) • DMSO (Sigma, Cat. No. D5879) • Centrifuge Tube, 15 ml (Excell Bio, Cat. No. CS015-0001) • Cell Culture Dish, (Excell Bio, Cat. No. CS016-0128) • 96-well cell culture cluster (Corning, Cat. No. 3599) • 2. Experimental method (1) Preparation of Buffer
1) CWR22RV1 cells were subcultured in cell culture medium, and the cells in good growth condition were seeded in a 96-well plate, 80 μL for each well, thus the number of cells per well was 1500, then the plate was cultured overnight in a 37° C., 5% CO2 cell incubator.
2) The drug was prepared with dimethyl sulfoxide (DMSO) as a 30 mM stock solution. Prior to use, the solution was diluted 3 times with DMSO, and then diluted with a 3-fold gradient to obtain 9 concentration gradients. Then, each concentration of the compound was further diluted 200 times with the culture solution (to ensure that DMSO concentration in the culture system was 0.1%), 2 repeat wells for each concentration. The diluted solution of each compound (20 μL) was added to the cell culture well (with a final concentration of 10 μM, 3.3 μM, 1.1 μM . . . ), and shaken gently for mixing. In addition, three negative control wells containing only cells and three blank control wells containing only culture medium (20 μL DMSO diluted 200 times with culture medium being added to six wells) were included.
(1) After culturing for 6 days, 10 μL CCK-8 was added to each well and cultured for additional 2.5 h in a 37° C., 5% CO2 cell incubator.
(2) The absorbance (OD value) at 450 nm was measured with a multifunctional microplate reader.
(3) The data was analyzed by the Dose-response-inhibition equation in the software GraphPad Prism6, and the IC50 value was obtained.
As for `Cn1cc(-c2cc(C(N)=O)ccc2N2CCC3(CC2)CC3)c2cc[nH]c2c1=O` [Compound 221, 3-(6-methyl-7-oxo-6,7-dihydro-1H-pyrrolo[2,3-c]pyridin-4-yl)-4-(6-aza-spiro[2.5]octan-6-yl)benzeneformamide], the IC50 is 130 nM.
Then `CCS(=O)(=O)c1ccc(N2CCC3(CC3)C2)c(-c2cn(C)c(=O)c3[nH]ccc23)c1` [Compound 25, 4-(5(ethylsulfonyl)-2-(5-aza-spiro[2.4]heptan-5-yl)phenyl)-6-methyl-1H-pyrrolo[2,3-c]pyridin-7(6H)-one], with 26 nM.
Under `[2H]C([2H])([2H])n1cc(-c2cc(NS(=O)(=O)CC)ccc2N2CCC3(CC2)COC3)c2cc[nH]c2c1=O` [Compound 196, N-(3-(6-trideuteromethyl-7-oxo-6,7-dihydro-1H-pyrrolo[2,3-c]pyridin-4-yl)-4-(2-oxa-7-aza-spiro[3.5]nonan-7-yl)phenyl)ethanesulfonamide] stands 56 nM.
Under `Cn1cc(-c2cc(S(C)(=O)=O)ccc2N2CCCC2C(=O)O)c2cc[nH]c2c1=O` (centres unmarked) [Compound 248, 1-(2-(6-methyl-7-oxo-6,7-dihydro-1H-pyrrolo[2,3-c]pyridin-4-yl)-4-(methanesulfonyl)phenyl)pyrrolidin-2-carboxylic acid] stands 7000 nM; under `[2H]C([2H])([2H])n1cc(-c2cc(S(N)(=O)=O)c(F)cc2N2CCC3(CC2)CC3)c2cc[nH]c2c1=O` [Compound 236, 2-fluoro-5-(6-trideuteromethyl-7-oxo-6,7-dihydro-1H-pyrrolo [2,3-c]pyridin-4-yl)-4-(6-aza-spiro[2.5]octan-6-yl)benzenesulfonamide], 3.2 nM; under `[2H]C([2H])([2H])n1cc(-c2cc(S(N)(=O)=O)cnc2N2CCC3(CC2)CC3)c2cc[nH]c2c1=O` [Compound 199, 5-(6-trideuteromethyl-7-oxo-6,7-dihydro-1H-pyrrolo[2,3-c]pyridin-4-yl)-6-(6-aza-spiro[2.5]octan-6-yl)pyridin-3-sulfonamide], 2 nM.
The molecule `CCS(=O)(=O)Nc1ccc(N2CCC3(CC2)CC3)c(-c2cn(C)c(=O)c3[nH]ccc23)c1` [Compound 8] showed an IC50 of 6 nM.
Then `CCS(=O)(=O)Nc1ccc(N2CCCC3(CC3)C2)c(-c2cn(C)c(=O)c3[nH]ccc23)c1` [Compound 9, N-(3-(6-methyl-7-oxo-6,7-dihydro-1H-pyrrolo[2,3-c]pyridin-4-yl)-4-(5-aza-spiro[2.5]octan-5-yl)phenyl)ethylsulfonamide], with 30 nM.
Then `CCCCS(=O)(=O)Nc1ccc(N2CC3(COC3)C2)c(-c2cn(C)c(=O)c3[nH]ccc23)c1` [Compound 17, N-(3-(6-methyl-7-oxo-6,7-dihydro-1H-pyrrolo[2,3-c]pyridin-4-yl)-4-(2-oxa-6-aza-spiro[3.3]heptan-6-yl)phenyl)butan-1-sulfonamide], with 440 nM; and `Cn1cc(-c2cc(S(C)(=O)=O)ccc2N2CCC3(CC2)CC3C(=O)O)c2cc[nH]c2c1=O` (centres unmarked) [Compound 39, 6-(2-(6-methyl-7-oxo-6,7-dihydro-1H-pyrrolo[2,3-c]pyridin-4-yl)-4-(methylsulfonyl)phenyl)-6-aza-spiro[2.5]octan-1-carboxylic acid], with 2410 nM; and `[2H]C([2H])([2H])n1cc(-c2cc(S(=O)(=O)C3COC3)ccc2N2CC3(CCC3)C2)c2cc[nH]c2c1=O` [Compound 61, 6-trideuteromethyl-4-(5-(oxetane-3-ylsulfonyl)-2-(2-aza-spiro [3.3]heptan-2-yl)phenyl)-1H-pyrrolo[2,3-c]pyridin-7(6H)-one], with 105 nM.
Under `Cn1cc(-c2cc(S(C)(=O)=O)ccc2N2CCC3(CC2)CC3CO)c2cc[nH]c2c1=O` (centres unmarked) [Compound 179, 4-(2-(1-(hydroxymethyl)-6-aza-spiro[2.5]octan-6-yl)-5-(methylsulfonyl)phenyl)-6-methyl-1H-pyrrolo[2,3-c]pyridin-7(6H)-one] stands 51 nM; under `[2H]C([2H])([2H])n1cc(-c2cc(NS(C)(=O)=O)ccc2N2CC3(CCC3)C2)c2cc[nH]c2c1=O` [Compound 44, N-(3-(6-trideuteromethyl-7-oxo-6,7-dihydro-1H-pyrrolo[2,3-c]pyridin-4-yl)-4-(2-aza-spiro[3.3]heptan-2-yl)phenyl)methanesulfonamide], 45 nM.
For the molecule `CCCCS(=O)(=O)Nc1ccc(N2CCC3(CC2)CC3)c(-c2cn(C)c(=O)c3[nH]ccc23)c1` [Compound 70, N-(3-(6-methyl-7-oxo-6,7-dihydro-1H-pyrrolo[2,3-c]pyridin-4-yl)-4-(6-aza-spiro[2.5]octan-6-yl)phenyl)butyl-1-sulfonamide], inhibition was half-maximal at 130 nM (IC50).
Then `[2H]C([2H])([2H])n1cc(-c2cc(NS(=O)(=O)CCCC)ccc2N2CC3(CCC3)C2)c2cc[nH]c2c1=O` [Compound 46, N-(3-(6-trideuteromethyl-7-oxo-6,7-dihydro-1H-pyrrolo[2,3-c]pyridin-4-yl)-4-(2-aza-spiro[3.3]heptan-2-yl)phenyl)butane-1-sulfonamide], with 130 nM; and `Cn1cc(-c2cc(NS(C)(=O)=O)ccc2N2CCC3(CC3)C2)c2cc[nH]c2c1=O` [Compound 246, N-(3-(6-methyl-7-oxo-6,7-dihydro-1H-pyrrolo[2,3-c]pyridin-4-yl)-4-(5-aza-spiro[2.4]heptan-5-yl)phenyl)methanesulfonamide], with 30 nM.
Then `Cn1cc(-c2cc(C(=O)O)ccc2N2CCC3(CC2)CC3)c2cc[nH]c2c1=O` [Compound 220, 3-(6-methyl-7-oxo-6,7-dihydro-1H-pyrrolo[2,3-c]pyridin-4-yl)-4-(6-aza-spiro[2.5]octan-6-yl)benzoic acid], with 530 nM; and `[2H]C([2H])([2H])n1cc(-c2cc(S(N)(=O)=O)ccc2N2CCC3(CC3)C2)c2cc[nH]c2c1=O` [Compound 200, 3-(6-trideuteromethyl-7-oxo-6,7-dihydro-1H-pyrrolo[2,3-c]pyridin-4-yl)-4-(5-aza-spiro[2.4]heptan-5-yl)benzensulfonamide], with 6.7 nM; and `[2H]C([2H])([2H])n1cc(-c2cc(S(C)(=O)=O)cnc2N2CCC3(CC2)CC3)c2cc[nH]c2c1=O` [Compound 187, 6-trideuteromethyl-4-(5(methylsulfonyl)-2-(6-aza-spiro[2.5]octan-6-yl)pyridin-3-yl)-1H-pyrrolo[2,3-c]pyridin-7(6H)-one], with 19 nM.
`[2H]C([2H])([2H])n1cc(-c2cc(S(=O)(=O)N(C)C)ccc2N2CCC3(CC2)CC3)c2cc[nH]c2c1=O` [Compound 203, N,N-dimethyl-3-(6-trideuteromethyl-7-oxo-6,7-dihydro-1H-pyrrolo[2,3-c]pyridin-4-yl)-4-(6-aza-spiro[2.5]octan-6-yl)benzenesulfonamide] registered an IC50 of 0.2 nM.
Under `[2H]C([2H])([2H])n1cc(-c2cc(NS(=O)(=O)CC)ccc2N2CCC3(CC2)CC3C(=O)O)c2cc[nH]c2c1=O` (centres unmarked) [Compound 53, 6-(4-(ethylsulfonamide)-2-(6-trideuteromethyl-7-oxo-6,7-dihydro-1H-pyrrolo[2,3-c]pyridin-4-yl)phenyl)-6-aza-spiro[2.5]octan-1-carboxylic acid] stands 550 nM; under `CCCCS(=O)(=O)c1ccc(N2CC3(COC3)C2)c(-c2cn(C)c(=O)c3[nH]ccc23)c1` [Compound 36, 4-(5-(butylsulfonyl)-2-(2-oxa-6-aza-spiro[3.3]heptan-6-yl)phenyl)-6-methyl-1H-pyrrolo[2,3-c]pyridin-7(6H)-one], 560 nM; under `[2H]C([2H])([2H])n1cc(-c2cc(S(=O)(=O)C3CC3)ccc2N2CCCC3(CC3)C2)c2cc[nH]c2c1=O` [Compound 58, 4-(5-(cyclopropylsulfonyl)-2-(5-aza-spiro[2.5]octan-5-yl)phenyl)-6-trideuteromethyl-1H-pyrrolo[2,3-c]pyridin-7(6H)-one], 50 nM.
Then `[2H]C([2H])([2H])n1cc(-c2cc(NS(=O)(=O)CCCC)ccc2N2CC3(COC3)C2)c2cc[nH]c2c1=O` [Compound 50, N-(3-(6-trideuteromethyl-7-oxo-6,7-dihydro-1H-pyrrolo[2,3-c]pyridin-4-yl)-4-(2-oxa-6-aza-spiro[3.3]heptan-6-yl)phenyl) butane-1-sulfonamide], with 510 nM; and `[2H]C([2H])([2H])n1cc(-c2cc(NS(=O)(=O)CC)ccc2N2CC3(COC3)C2)c2cc[nH]c2c1=O` [Compound 49, N-(3-(6-trideuteromethyl-7-oxo-6,7-dihydro-1H-pyrrolo[2,3-c]pyridin-4-yl)-4-(2-oxa-6-aza-spiro[3.3]heptan-6-yl)phenyl)ethanesulfonamide], with 420 nM; and `Cn1cc(-c2cc(S(C)(=O)=O)ccc2N2CCC3(CC2)COC3)c2cc[nH]c2c1=O` [Compound 177, 6-methyl-4-(5-(methylsulfonyl)-2-(2-oxa-7-aza-spiro[3.5]nonan-7-yl)phenyl)-1H-pyrrolo[2,3-c]pyridin-7(6H)-one], with 17 nM.
